From paper PMC10004634 (PLOS ONE, 2023)
Where two headings read alike, the source gives them in different places.

Experiments:
Assay in all cases: biochemical
Parameters in all cases: KINOMEscan scanMAX competition binding, DNA-tagged kinases, qPCR read-out, percent control at 300 nM
DCAMKL3 = biological target: T1, DCAMKL3 (Homo sapiens, UniProt Q9C098)
T1 construct: gene DCLK3

BMPR1B = BMPR1B (Homo sapiens, UniProt O00238)
FLT3(ITD) = FLT3(ITD) (Homo sapiens, UniProt P36888, ITD)
HCK = HCK (Homo sapiens, UniProt P08631)
EGFR(L858R,T790M) = EGFR(L858R,T790M) (Homo sapiens, UniProt P00533, L858R/T790M)
DYRK2 = DYRK2 (Homo sapiens, UniProt Q92630)
MERTK = MERTK (Homo sapiens, UniProt Q12866)
MST4 = biological target: T2, MST4 (Homo sapiens, UniProt Q9P289)
T2 construct: gene STK26

TIE2 = biological target: T3, TIE2 (Homo sapiens, UniProt Q02763)
T3 construct: gene TEK

MST2 = biological target: T4, MST2 (Homo sapiens, UniProt Q13188)
T4 construct: gene STK3

p38-beta = biological target: T5, p38-beta (Homo sapiens, UniProt Q15759)
T5 construct: gene MAPK11

SGK3 = SGK3 (Homo sapiens, UniProt Q96BR1)
GCN2(Kin.Dom.2,S808G) = biological target: T6, GCN2(Kin.Dom.2,S808G) (Homo sapiens, UniProt Q9P2K8, S808G)
T6 construct: gene EIF2AK4; Kin.Dom.2

ARK5 = biological target: T7, ARK5 (Homo sapiens, UniProt O60285)
T7 construct: gene NUAK1

LIMK2 = LIMK2 (Homo sapiens, UniProt P53671)
CHEK2 = CHEK2 (Homo sapiens, UniProt O96017)
ERK2 = biological target: T8, ERK2 (Homo sapiens, UniProt P28482)
T8 construct: gene MAPK1

MAST1 = MAST1 (Homo sapiens, UniProt Q9Y2H9)
MUSK = MUSK (Homo sapiens, UniProt O15146)
[1] = biological target: T9, RPS6KA5(Kin.Dom.2-C-terminal) (Homo sapiens, UniProt O75582)
T9 construct: Kin.Dom.2-C-terminal

CDK4-cyclinD3 = biological target: T10, CDK4-cyclinD3 (Homo sapiens, UniProt P11802)
T10 construct: cyclinD3

ERK5 = biological target: T11, ERK5 (Homo sapiens, UniProt Q13164)
T11 construct: gene MAPK7

LKB1 = biological target: T12, LKB1 (Homo sapiens, UniProt Q15831)
T12 construct: gene STK11

[2] = read-out: Percent control / Tirabrutinib
[3] = read-out: Percent control / Ibrutinib
[4] = read-out: Percent control / Zanubrutinib
[5] = read-out: Percent control / Acalabrutinib

T1 sequence (Q9C098 whole entry): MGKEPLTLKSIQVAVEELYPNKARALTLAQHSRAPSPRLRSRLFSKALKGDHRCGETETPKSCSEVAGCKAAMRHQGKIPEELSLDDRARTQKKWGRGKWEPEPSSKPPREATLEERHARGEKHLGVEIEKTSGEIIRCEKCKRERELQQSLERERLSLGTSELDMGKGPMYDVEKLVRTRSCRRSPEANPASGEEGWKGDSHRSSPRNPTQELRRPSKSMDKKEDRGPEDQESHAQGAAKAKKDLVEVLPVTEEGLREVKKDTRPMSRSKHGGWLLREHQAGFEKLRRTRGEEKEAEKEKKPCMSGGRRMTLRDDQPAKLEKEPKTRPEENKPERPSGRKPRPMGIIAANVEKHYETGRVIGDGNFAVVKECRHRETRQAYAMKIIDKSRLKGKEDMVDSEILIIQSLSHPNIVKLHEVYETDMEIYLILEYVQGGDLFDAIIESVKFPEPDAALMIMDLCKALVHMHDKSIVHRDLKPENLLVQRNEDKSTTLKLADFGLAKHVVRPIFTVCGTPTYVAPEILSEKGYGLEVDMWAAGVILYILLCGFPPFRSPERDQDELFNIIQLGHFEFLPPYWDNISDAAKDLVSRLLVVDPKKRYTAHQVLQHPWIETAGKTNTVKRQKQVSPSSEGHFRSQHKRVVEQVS
Sequence of MAST1 (Q9Y2H9 whole entry): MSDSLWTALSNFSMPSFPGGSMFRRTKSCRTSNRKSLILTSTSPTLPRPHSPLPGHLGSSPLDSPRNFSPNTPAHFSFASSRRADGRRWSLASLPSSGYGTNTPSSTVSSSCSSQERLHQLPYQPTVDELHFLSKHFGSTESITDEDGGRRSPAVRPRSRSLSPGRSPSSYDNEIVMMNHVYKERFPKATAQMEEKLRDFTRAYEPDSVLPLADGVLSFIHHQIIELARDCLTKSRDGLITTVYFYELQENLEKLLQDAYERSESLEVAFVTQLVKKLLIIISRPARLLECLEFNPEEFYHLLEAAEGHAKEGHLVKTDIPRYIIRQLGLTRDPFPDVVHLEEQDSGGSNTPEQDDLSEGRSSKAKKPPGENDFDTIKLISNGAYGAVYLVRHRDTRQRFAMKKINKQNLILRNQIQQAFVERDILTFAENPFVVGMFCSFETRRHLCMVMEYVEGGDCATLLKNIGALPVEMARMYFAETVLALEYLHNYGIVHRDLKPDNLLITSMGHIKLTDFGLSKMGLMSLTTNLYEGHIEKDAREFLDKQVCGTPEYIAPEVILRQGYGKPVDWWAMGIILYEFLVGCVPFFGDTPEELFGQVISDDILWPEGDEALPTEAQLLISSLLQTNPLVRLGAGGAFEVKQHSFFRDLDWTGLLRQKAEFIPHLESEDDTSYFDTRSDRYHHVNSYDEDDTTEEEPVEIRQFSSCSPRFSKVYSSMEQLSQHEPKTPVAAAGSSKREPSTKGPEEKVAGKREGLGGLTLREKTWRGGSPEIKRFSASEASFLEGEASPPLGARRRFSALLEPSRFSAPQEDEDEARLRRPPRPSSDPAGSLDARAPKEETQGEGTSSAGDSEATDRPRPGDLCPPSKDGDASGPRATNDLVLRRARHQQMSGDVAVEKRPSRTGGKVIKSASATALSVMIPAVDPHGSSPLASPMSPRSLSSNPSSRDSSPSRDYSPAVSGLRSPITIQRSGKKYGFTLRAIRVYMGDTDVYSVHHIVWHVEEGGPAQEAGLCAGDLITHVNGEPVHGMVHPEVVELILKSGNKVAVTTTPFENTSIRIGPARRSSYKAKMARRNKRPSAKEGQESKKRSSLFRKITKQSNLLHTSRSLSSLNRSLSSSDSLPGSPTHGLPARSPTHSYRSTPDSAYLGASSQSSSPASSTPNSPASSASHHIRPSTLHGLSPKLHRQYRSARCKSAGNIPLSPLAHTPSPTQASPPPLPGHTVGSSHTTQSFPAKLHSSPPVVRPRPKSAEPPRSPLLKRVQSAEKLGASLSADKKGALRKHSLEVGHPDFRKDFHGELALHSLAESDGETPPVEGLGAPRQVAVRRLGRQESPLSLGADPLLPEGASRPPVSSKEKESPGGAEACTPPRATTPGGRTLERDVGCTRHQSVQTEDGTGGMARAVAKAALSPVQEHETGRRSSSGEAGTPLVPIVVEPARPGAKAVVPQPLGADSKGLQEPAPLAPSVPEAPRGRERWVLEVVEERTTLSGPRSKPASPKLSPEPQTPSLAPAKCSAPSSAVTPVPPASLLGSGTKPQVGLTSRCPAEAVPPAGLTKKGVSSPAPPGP
Sequence of MUSK (O15146 whole entry): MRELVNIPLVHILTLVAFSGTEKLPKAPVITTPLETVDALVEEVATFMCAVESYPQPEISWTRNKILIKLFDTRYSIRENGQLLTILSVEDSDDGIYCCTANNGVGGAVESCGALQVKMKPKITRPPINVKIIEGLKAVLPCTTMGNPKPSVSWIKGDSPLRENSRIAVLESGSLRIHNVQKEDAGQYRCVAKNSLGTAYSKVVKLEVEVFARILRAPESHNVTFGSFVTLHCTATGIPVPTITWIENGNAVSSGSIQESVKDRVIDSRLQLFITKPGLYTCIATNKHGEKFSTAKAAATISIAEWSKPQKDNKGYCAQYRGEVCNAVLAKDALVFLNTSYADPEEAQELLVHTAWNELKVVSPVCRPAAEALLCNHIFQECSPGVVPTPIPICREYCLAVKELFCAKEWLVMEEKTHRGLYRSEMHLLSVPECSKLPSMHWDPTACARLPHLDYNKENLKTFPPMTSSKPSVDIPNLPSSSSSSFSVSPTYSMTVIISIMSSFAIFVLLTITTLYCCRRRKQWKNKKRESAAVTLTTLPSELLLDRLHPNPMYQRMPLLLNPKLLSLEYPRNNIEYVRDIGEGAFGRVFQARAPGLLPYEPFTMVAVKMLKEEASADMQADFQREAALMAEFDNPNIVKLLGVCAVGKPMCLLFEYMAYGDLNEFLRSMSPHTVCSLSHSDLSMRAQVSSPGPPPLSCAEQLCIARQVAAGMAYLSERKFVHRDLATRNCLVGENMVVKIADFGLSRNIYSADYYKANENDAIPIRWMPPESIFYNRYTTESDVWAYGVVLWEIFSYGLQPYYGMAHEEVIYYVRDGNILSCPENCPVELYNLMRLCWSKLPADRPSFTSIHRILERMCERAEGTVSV
Sequence of HCK (P08631 whole entry): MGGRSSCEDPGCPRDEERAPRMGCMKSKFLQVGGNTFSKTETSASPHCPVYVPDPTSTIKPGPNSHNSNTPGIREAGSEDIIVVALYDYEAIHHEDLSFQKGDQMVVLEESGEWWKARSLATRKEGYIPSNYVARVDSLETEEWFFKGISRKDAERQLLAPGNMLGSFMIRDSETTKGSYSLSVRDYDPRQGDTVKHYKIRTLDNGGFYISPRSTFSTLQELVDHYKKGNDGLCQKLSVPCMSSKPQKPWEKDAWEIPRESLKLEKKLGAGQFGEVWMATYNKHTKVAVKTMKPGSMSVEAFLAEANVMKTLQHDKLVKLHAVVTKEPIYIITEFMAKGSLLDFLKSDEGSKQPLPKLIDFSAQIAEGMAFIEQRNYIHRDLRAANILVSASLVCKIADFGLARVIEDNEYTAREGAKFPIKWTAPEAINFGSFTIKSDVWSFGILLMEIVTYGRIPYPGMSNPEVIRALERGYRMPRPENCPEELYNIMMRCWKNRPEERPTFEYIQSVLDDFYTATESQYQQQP
Sequence of FLT3(ITD) (P36888 564-993, change not shown): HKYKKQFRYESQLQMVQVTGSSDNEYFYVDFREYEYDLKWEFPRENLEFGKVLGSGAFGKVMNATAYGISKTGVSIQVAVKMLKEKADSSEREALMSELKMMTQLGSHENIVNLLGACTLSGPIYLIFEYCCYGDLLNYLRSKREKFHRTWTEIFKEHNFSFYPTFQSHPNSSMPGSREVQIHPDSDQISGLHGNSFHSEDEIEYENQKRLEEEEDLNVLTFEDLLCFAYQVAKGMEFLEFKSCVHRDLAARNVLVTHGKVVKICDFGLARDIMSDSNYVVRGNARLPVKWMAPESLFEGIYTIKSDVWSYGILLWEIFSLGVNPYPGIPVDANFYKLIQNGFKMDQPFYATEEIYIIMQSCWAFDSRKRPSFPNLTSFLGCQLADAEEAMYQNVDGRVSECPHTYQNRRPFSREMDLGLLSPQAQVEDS
T9 sequence (O75582 whole entry): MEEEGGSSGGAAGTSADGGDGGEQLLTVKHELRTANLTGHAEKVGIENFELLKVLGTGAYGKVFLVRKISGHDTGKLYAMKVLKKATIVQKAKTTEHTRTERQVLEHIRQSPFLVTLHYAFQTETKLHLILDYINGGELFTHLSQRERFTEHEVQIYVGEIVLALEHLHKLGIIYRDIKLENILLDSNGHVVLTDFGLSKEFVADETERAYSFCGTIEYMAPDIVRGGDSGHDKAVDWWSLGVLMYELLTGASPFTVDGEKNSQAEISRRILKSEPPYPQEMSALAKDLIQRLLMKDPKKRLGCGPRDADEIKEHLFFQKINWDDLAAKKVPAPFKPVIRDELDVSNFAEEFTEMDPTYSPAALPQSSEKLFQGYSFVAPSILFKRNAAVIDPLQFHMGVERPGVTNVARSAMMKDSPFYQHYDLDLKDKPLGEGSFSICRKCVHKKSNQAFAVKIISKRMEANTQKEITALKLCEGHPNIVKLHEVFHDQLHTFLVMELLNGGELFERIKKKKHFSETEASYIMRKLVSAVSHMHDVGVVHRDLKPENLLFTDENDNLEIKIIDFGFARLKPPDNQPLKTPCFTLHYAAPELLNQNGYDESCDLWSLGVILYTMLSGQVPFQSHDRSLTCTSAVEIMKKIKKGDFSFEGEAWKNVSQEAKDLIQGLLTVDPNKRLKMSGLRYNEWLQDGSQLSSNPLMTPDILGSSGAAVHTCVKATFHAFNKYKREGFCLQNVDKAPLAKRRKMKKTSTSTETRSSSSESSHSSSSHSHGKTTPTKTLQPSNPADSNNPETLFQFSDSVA

`CC#CC(=O)N1CC[C@@H](n2c(=O)n(-c3ccc(Oc4ccccc4)cc3)c3c(N)ncnc32)C1` [Tirabrutinib] showed a remaining binding at 0.3 µM (DCAMKL3; [2]) of 99%, a remaining binding at 0.3 µM (BMPR1B; [2]) of 98% and a remaining binding at 0.3 µM (FLT3(ITD); [2]) of 82%. The remaining binding at 0.3 µM (HCK; [2]) was 57%, the remaining binding at 0.3 µM (EGFR(L858R,T790M); [2]) was 100% and the remaining binding at 0.3 µM (DYRK2; [2]) was 99%.
In the case of `C=CC(=O)N1CCC[C@@H](n2nc(-c3ccc(Oc4ccccc4)cc3)c3c(N)ncnc32)C1` [Ibrutinib], the remaining binding at 0.3 µM (MERTK; [3]) is reported as 70%, the remaining binding at 0.3 µM (MST4; [3]) is reported as 89% and the remaining binding at 0.3 µM (TIE2; [3]) is reported as 72%. For the same compound, the remaining binding at 0.3 µM (MST2; [3]) was 85%, the remaining binding at 0.3 µM (p38-beta; [3]) was 85% and the remaining binding at 0.3 µM (HCK; [3]) was 4.5%.
`C=CC(=O)N1CCC([C@@H]2CCNc3c(C(N)=O)c(-c4ccc(Oc5ccccc5)cc4)nn32)CC1` [Zanubrutinib] showed a remaining binding at 0.3 µM (MERTK; [4]) of 91%, a remaining binding at 0.3 µM (SGK3; [4]) of 74% and a remaining binding at 0.3 µM (GCN2(Kin.Dom.2,S808G); [4]) of 100%. For the same compound, the remaining binding at 0.3 µM (MST4; [4]) was 63%, the remaining binding at 0.3 µM (DCAMKL3; [4]) was 100% and the remaining binding at 0.3 µM (BMPR1B; [4]) was 98%. The remaining binding at 0.3 µM (ARK5; [4]) was 94%, the remaining binding at 0.3 µM (TIE2; [4]) was 99% and the remaining binding at 0.3 µM (LIMK2; [4]) was 92%. For the same compound, the remaining binding at 0.3 µM (CHEK2; [4]) was 98%, the remaining binding at 0.3 µM (MST2; [4]) was 100% and the remaining binding at 0.3 µM (ERK2; [4]) was 100%. It also gave a remaining binding at 0.3 µM (MAST1; [4]) of 100%, a remaining binding at 0.3 µM (MUSK; [4]) of 96% and a remaining binding at 0.3 µM (p38-beta; [4]) of 82%. For the same compound, the remaining binding at 0.3 µM [1, 4] was 100%, the remaining binding at 0.3 µM (CDK4-cyclinD3; [4]) was 98% and the remaining binding at 0.3 µM (ERK5; [4]) was 84%. It also gave a remaining binding at 0.3 µM (LKB1; [4]) of 84% and a remaining binding at 0.3 µM (DYRK2; [4]) of 81%.
`CC#CC(=O)N1CCC[C@H]1c1nc(-c2ccc(C(=O)Nc3ccccn3)cc2)c2c(N)nccn12` [Acalabrutinib] showed a remaining binding at 0.3 µM (SGK3; [5]) of 94%, a remaining binding at 0.3 µM (GCN2(Kin.Dom.2,S808G); [5]) of 91% and a remaining binding at 0.3 µM (ARK5; [5]) of 69%. For the same compound, the remaining binding at 0.3 µM (LIMK2; [5]) was 96%, the remaining binding at 0.3 µM (FLT3(ITD); [5]) was 85% and the remaining binding at 0.3 µM (CHEK2; [5]) was 84%. It also gave a remaining binding at 0.3 µM (ERK2; [5]) of 96%, a remaining binding at 0.3 µM (MAST1; [5]) of 87% and a remaining binding at 0.3 µM (MUSK; [5]) of 82%. The remaining binding at 0.3 µM [1, 5] was 92%, the remaining binding at 0.3 µM (CDK4-cyclinD3; [5]) was 97% and the remaining binding at 0.3 µM (EGFR(L858R,T790M); [5]) was 97%. The remaining binding at 0.3 µM (ERK5; [5]) was 97% and the remaining binding at 0.3 µM (LKB1; [5]) was 94%.
